Experiment: xn = mol fraction of the nth substance listed
Settings: Fluid (supercritical or subcritical phases); for speed of sound: Frequency=5 MHz, Pulse-echo method; for mass density: Vibrating tube method

O=C=O [carbon dioxide] + CO
Settings	mass density [kg/m3]	speed of sound [m/s]
263.18 K, 64760 kPa, x1 = 0.9803	–	1035.7
263.18 K, 64880 kPa, x1 = 0.7534	–	1088.8
263.18 K, 70160 kPa, x1 = 0.9803	–	1058.2
263.18 K, 70360 kPa, x1 = 0.7534	–	1110.8
263.18 K, 75340 kPa, x1 = 0.7534	–	1130
263.18 K, 75410 kPa, x1 = 0.9803	–	1078.8
263.18 K, 79750 kPa, x1 = 0.9803	–	1095.2
263.18 K, 80260 kPa, x1 = 0.7534	–	1148.4
263.18 K, 89760 kPa, x1 = 0.7534	–	1182.3
263.18 K, 89940 kPa, x1 = 0.9803	–	1132.1
263.18 K, 99680 kPa, x1 = 0.9803	–	1165
263.18 K, 100040 kPa, x1 = 0.7534	–	1216.8
263.18 K, 109950 kPa, x1 = 0.9803	–	1197.7
263.18 K, 110590 kPa, x1 = 0.7534	–	1250.3
263.18 K, 119810 kPa, x1 = 0.7534	–	1278.1
263.18 K, 120700 kPa, x1 = 0.9803	–	1230.1
263.18 K, 140780 kPa, x1 = 0.9803	–	1286.1
263.18 K, 141280 kPa, x1 = 0.7534	–	1338.3
263.18 K, 159890 kPa, x1 = 0.7534	–	1386.5
263.18 K, 160950 kPa, x1 = 0.9803	–	1337.6
263.18 K, 179550 kPa, x1 = 0.7534	–	1433.7
263.18 K, 179550 kPa, x1 = 0.9803	–	1382.1
263.19 K, 6000 kPa, x1 = 0.8502	–	691.2
263.19 K, 9880 kPa, x1 = 0.8502	–	731.2
263.19 K, 14650 kPa, x1 = 0.8502	–	773.8
263.19 K, 19850 kPa, x1 = 0.8502	–	814.7
263.19 K, 24990 kPa, x1 = 0.8502	–	850.9
263.19 K, 29690 kPa, x1 = 0.8502	–	881.1
263.19 K, 35020 kPa, x1 = 0.8502	–	912.8
263.19 K, 40080 kPa, x1 = 0.8502	–	940.7
263.19 K, 44910 kPa, x1 = 0.8502	–	965.8
263.19 K, 50170 kPa, x1 = 0.8502	–	991.7
263.19 K, 55230 kPa, x1 = 0.8502	–	1015.1
263.19 K, 60100 kPa, x1 = 0.8502	–	1036.7
263.19 K, 64650 kPa, x1 = 0.8502	–	1056
263.19 K, 70030 kPa, x1 = 0.8502	–	1078
263.19 K, 74380 kPa, x1 = 0.8502	–	1095.2
263.19 K, 80050 kPa, x1 = 0.8502	–	1116.4
263.19 K, 90050 kPa, x1 = 0.8502	–	1152.6
263.19 K, 100540 kPa, x1 = 0.8502	–	1187.6
263.19 K, 110230 kPa, x1 = 0.8502	–	1218.2
263.19 K, 120050 kPa, x1 = 0.8502	–	1247.8
263.19 K, 140150 kPa, x1 = 0.8502	–	1303.4
263.19 K, 150270 kPa, x1 = 0.8502	–	1329.1
273.15 K, 4600 kPa, x1 = 0.97	940.38	–
273.15 K, 4625 kPa, x1 = 0.97	940.6	–
273.15 K, 4650 kPa, x1 = 0.97	940.77	–
273.15 K, 4675 kPa, x1 = 0.97	941.01	–
273.15 K, 4700 kPa, x1 = 0.97	941.48	–
273.15 K, 4725 kPa, x1 = 0.97	941.61	–
273.15 K, 4750 kPa, x1 = 0.97	941.7	–
273.15 K, 4775 kPa, x1 = 0.97	942	–
273.15 K, 4800 kPa, x1 = 0.97	942.41	–
273.15 K, 4825 kPa, x1 = 0.97	942.58	–
273.15 K, 4850 kPa, x1 = 0.97	942.76	–
273.15 K, 4875 kPa, x1 = 0.97	942.95	–
273.15 K, 4900 kPa, x1 = 0.97	943.14	–
273.15 K, 4925 kPa, x1 = 0.97	943.32	–
273.15 K, 4950 kPa, x1 = 0.97	943.48	–
273.15 K, 4975 kPa, x1 = 0.97	943.65	–
273.15 K, 5000 kPa, x1 = 0.97	–	570.5

From the NIST ThermoML archive (doi:10.1016/j.jct.2016.03.026)
